The term pKd denotes −log10 of the Kd, conventionally taken in molar units. Broadly, the GI50 is the concentration giving 50% growth inhibition. Read a high GI50 as less potent growth inhibition.

The values below come from patent US12030867B2, “Hsp90β selective inhibitors” (University of Notre Dame du Lac, priority 2018, dated 2024).

For one series, the target named is Trap-1 (Homo sapiens (Human), UniProt Q12931). Description: binding affinity towards Trap-1.
Another series has as its target Grp94 (Homo sapiens (Human), UniProt P14625). Description: binding affinity towards Grp94.
For series [1], the system named is Hsp90 client proteins in UM-UC-3 cells. Kind of series: western blot analysis of client proteins in UM-UC-3 cells. It is filed as cell-based. The conditions noted are these: 24-hour incubation. Here is the method: Since Hsp90 inhibition induces the degradation of Hsp90-dependent substrates via the ubiquitin-proteosome pathway, the levels of both kinase and non-kinase Hsp90 clients were assessed via western blot analysis. […]. […] […]. Survivin, which is an Hsp90α dependent substrate was not affected, providing direct evidence for isoform-selective inhibition in a cellular context.
(In general: A western blot detects proteins with antibodies after separation by electrophoresis.)

Another series has as its system HT29 cells. Description: cells. The conditions noted are these: Homo sapiens, HT-29.
For a further series, the system named is other colon cancer cells. Kind of series: cells.
In series [2] the test system is UM-UC-3 bladder cancer cells. Description: cells. The conditions noted are these: Homo sapiens, UMUC3.
The test system of series [3] is PC3-MM2 prostate cancer cells. Description: cells. The settings on record: Homo sapiens, PC3MM2.
Series [4] concerns LNCap-LN3 prostate cancer cells. Description: cells.
In series [5] the test system is C4-2b prostate cancer cells. Kind of series: cells.
Series [6] concerns LAPC4 prostate cancer cells. Kind of series: cells. The conditions noted are these: Homo sapiens.
For another series, the system named is prostate cancer cells. Description: cells. The conditions noted are these: read-out: efficacy against prostate cancer cells.
In the next series the test system is T24 bladder cancer cells. Kind of series: tissue or blood.
In a further series the target is Hsp90β (Homo sapiens (Human), UniProt P08238). Description: fluorescence polarization (FP) assay, competitive displacement of FITC labeled Geldanamycin. The conditions noted are these: FP assay. It counts as binding. Here is the method:
Once prepared, the compounds were evaluated for their binding affinities against the cytosolic isoforms, Hsp90α and Hsp90β by measuring their ability to competitively displace FITC labeled Geldanamycin (GDA) in a fluorescence polarization assay (apparent Kd's listed in Table 1). […] The alkyne (4k) was investigated to determine whether a linear substituent could project into the subpocket and affect selectivity.

Series [7] deals with screened cancer cell lines. Description: inhibitory activity against a variety of cancer cell lines. It is filed as cell-based.
Series [8] concerns Hsp90 client proteins in HCT-116 cells. Description: western blot analysis following treatment of HCT-116 cells. It counts as cell-based. Here is the method:
(§1) 0.5 μM GDA was included as positive control and vehicle (D=DMSO) as negative control. […] Hsp90α siRNA was included as positive control and vehicle (lipofectamine) as negative control.

The subject of the next series is hERG channel. Description: western blot analysis of hERG channel trafficking in hERG-HEK293 cells. It is filed as cell-based. The settings on record: HEK293 cells expressing the hERG channel. How it is done: as §1
The subject of series [9] is HCT-116 colon cancer cells. Description: cells. The settings on record: Homo sapiens.
A further series has as its system MOLM-13 leukemia cells. Kind of series: cells. The conditions noted are these: Homo sapiens.
The next series deals with K562 leukemia cells. Description: cells. The settings on record: Homo sapiens.
The test system of series [10] is UM-UC3 bladder cancer cells. Description: cells. The conditions noted are these: Homo sapiens, UMUC3.
For series [11], the system named is HT1376 bladder cancer cells. Kind of series: cells. The settings on record: Homo sapiens, HT-1376.
For series [12], the system named is HTB-9 bladder cancer cells. Description: tissue or blood.
Series [13] has as its system HTB-5 bladder cancer cells. Description: tissue or blood.

SMILES strings stand for the structures. pIC50, pKd: −log10 of the molar value. Where only a bound is given, the exact number is not on record here.

Chain of Hsp90β (P08238 whole entry, canonical isoform): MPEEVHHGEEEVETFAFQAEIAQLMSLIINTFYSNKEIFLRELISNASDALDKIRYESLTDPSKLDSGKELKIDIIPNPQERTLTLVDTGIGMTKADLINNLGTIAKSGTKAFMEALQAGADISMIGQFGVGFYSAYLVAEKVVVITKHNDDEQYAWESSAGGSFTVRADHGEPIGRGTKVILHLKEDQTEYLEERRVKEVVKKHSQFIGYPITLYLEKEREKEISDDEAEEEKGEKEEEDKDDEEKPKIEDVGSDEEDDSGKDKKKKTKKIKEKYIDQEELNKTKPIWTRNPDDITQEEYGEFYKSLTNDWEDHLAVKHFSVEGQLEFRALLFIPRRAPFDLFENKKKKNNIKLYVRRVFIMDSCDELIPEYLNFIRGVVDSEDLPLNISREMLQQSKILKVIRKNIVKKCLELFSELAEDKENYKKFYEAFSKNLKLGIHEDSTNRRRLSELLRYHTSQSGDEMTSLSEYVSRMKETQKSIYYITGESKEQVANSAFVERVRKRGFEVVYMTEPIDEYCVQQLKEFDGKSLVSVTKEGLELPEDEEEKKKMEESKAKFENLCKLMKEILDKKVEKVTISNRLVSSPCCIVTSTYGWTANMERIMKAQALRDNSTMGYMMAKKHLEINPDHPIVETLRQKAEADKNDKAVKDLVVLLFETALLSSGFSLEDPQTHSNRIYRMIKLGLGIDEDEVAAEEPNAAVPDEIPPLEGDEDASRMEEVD
Chain of Trap-1 (Q12931 60-704): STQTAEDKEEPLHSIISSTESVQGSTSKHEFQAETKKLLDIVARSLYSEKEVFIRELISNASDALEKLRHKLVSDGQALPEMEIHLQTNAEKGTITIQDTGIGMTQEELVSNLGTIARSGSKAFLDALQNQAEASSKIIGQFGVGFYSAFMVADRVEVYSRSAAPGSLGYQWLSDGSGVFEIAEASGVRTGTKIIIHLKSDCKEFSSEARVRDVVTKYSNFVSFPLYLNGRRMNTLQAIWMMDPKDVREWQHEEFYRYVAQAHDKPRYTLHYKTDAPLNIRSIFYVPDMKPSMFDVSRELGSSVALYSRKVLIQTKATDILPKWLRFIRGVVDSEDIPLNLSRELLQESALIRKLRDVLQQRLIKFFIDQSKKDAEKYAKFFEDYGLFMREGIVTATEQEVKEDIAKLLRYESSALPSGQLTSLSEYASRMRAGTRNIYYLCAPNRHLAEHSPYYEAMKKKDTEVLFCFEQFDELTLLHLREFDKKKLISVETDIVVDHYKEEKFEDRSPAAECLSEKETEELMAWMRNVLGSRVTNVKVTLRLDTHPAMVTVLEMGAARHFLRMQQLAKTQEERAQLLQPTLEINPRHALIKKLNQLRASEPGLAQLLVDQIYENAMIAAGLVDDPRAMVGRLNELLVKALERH
Chain of Grp94 (P14625 22-803, species assumed): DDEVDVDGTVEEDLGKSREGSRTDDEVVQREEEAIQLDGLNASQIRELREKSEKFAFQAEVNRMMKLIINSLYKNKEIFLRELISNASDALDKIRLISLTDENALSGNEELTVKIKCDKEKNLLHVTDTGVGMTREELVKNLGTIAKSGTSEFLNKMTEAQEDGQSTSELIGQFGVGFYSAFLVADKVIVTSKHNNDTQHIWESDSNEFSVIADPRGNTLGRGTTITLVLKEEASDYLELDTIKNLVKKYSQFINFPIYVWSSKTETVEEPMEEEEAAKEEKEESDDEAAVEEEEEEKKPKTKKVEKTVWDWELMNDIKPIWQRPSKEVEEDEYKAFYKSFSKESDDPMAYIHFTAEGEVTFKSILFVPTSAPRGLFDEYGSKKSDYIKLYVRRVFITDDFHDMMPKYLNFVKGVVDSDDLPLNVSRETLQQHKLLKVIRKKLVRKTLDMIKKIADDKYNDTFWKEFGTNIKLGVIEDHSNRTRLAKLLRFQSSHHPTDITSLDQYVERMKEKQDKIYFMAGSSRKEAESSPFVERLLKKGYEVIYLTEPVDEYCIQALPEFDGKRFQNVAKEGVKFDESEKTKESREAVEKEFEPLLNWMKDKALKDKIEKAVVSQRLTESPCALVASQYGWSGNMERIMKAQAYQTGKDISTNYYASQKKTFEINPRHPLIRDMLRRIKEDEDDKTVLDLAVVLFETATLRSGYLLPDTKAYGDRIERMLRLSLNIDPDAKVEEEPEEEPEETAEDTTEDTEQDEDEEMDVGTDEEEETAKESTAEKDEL

For the compound `CCCc1cc2cc(-n3nc(C)c4c3CC(C)(C)CC4=O)cc(N[C@H]3CC[C@H](O)CC3)c2c(=O)[nH]1` [Compound 4d, 8-(((1r,4r)-4-hydroxycyclohexyl)amino)-3-propyl-6-(3,6,6-trimethyl-4-oxo-4,5,6,7-tetrahydro-1H-indazol-1-yl)isoquinolin-1(2H)-one], the pKd on Trap-1 and at Grp94 was < 5.30 each time. The “CXCR4 and B-raf levels (Hsp90β-dependent clients)” value in [1] is reported as “marked dose-dependent reduction”. Moreover, the FGFR3 level result in series [1] was “marked dose-dependent reduction”. Also, in series [1], the “Hsp27 and Hsf-1 levels (heat shock related proteins)” value is “declined upon increasing doses”. Besides, the “Survivin level (Hsp90α dependent substrate)” value in series [1] is “not affected”. The concentration for 50% growth inhibition (GI50) in the series with HT29 cells is 0.026 µM; in the series with other colon cancer cells it was 0.05 to 0.08 µM; in [2], 0.508 µM; in series [3], 1.24 µM; in [4], 1.18 µM; in [5], 1.03 µM. Also, the values for the GI50 (in series [6]; in the series with T24 bladder cancer cells) were 2.56 µM and 0.197 µM, respectively. Also, in the series on prostate cancer cells, the pIC50 is 5.60 to 6.00.
Consider `CCCC1Cc2cc(-n3nc(C)c4c3CC(C)(C)CC4=O)cc(N[C@H]3CC[C@H](O)CC3)c2C(=O)N1` (some centres unmarked) [Compound 6a, 8-(((1r,4r)-4-hydroxycyclohexyl)amino)-3-propyl-6-(3,6,6-trimethyl-4-oxo-4,5,6,7-tetrahydro-1H-indazol-1-yl)-3,4-dihydroisoquinolin-1(2H)-one], for which, on Hsp90β, the “affinity for Hsp90β (in words)” value is “increased binding affinity”. Besides, the “selectivity for Hsp90β over Hsp90α (in words)” value at Hsp90β was “enhanced selectivity”. For the same compound, the “IC50 values against the screened cancer cell lines (in words)” value in series [7] is reported as “submicromolar”. In series [8], the “CDK4, CDK6, cIAP1 and CXCR4 levels (Hsp90β-dependent clients)” value is “induced the degradation”. Further, the “total levels of Akt-1 and Raf-1” value in series [8] was “not affected”. Further, the “Hsf-1, Hsp70 and Hsp90 levels” value in series [8] (24 h exposure) is on record as “induced the degradation”. The “hERG channel maturation and trafficking” value in the series on hERG channel is given as “not affected”. Besides, the pIC50 was 6.58 in [9]; 7.40 in the series with MOLM-13 leukemia cells; 6.30 with K562 leukemia cells; 5.98 in series [10]; 6.15 in series [11]; 6.09 in [12]. Besides, the pIC50 in [13] is 6.03.
